Literature values in patent US10646464B2, “Methods for treating cancer” (Boston Biomedical, Inc., priority 2017, dated 2020).

Key:
Stat3 pathway = conditions: read-out: inhibits Stat3 pathway activity, cellular IC50
[1] = system: patients with advanced, previously treated pancreatic adenocarcinoma; conditions: weekly paclitaxel alone, previously reported

| SMILES | IC50 (Stat3 pathway) [nM] | median overall survival (mOS) [1] |
| --- | --- | --- |
| CC(=O)c1cc2c(o1)C(=O)c1ccccc1C2=O [2-acetylnaphtho[2,3-b]furan-4,9-dione] | ~250 | – |
| CC(=O)O[C@H]1C(=O)[C@@]2(C)[C@H]([C@H](OC(=O)c3ccccc3)[C@]3(O)C[C@H](OC(=O)[C@H](O)[C@@H](NC(=O)c4ccccc4)c4ccccc4)C(C)=C1C3(C)C)[C@]1(OC(C)=O)CO[C@@H]1C[C@@H]2O [paclitaxel] | – | about 17.5 weeks |
